The results in this text go back to article PMC5218480 (PLoS ONE, 2017).

The assay relates to MV-4-11 cells. Description: Gene expression microarray analysis (Affymetrix PrimeView) and GSEA. In kind it is cell-based, human. The arrangement: RFU PODN (11730768_x_at) / Fold change /veh PODN (11730768_x_at) / RFU LINC00158 (11744669_a_at) / Fold change /veh LINC00158 (11744669_a_at) / RFU DUSP10 (11751237_a_at) / Fold change /veh DUSP10 (11751237_a_at) / RFU ID3 (11757404_x_at) / Fold change /veh ID3 (11757404_x_at) / RFU PLEKHG5 (11737974_s_at) / Fold change /veh PLEKHG5 (11737974_s_at) / RFU LRRC4B (11730491_at) / Fold change /veh LRRC4B (11730491_at) / RFU GIMAP4 (11747438_a_at) / Fold change /veh GIMAP4 (11747438_a_at) / RFU KRT8 (11758183_x_at) / Fold change /veh KRT8 (11758183_x_at) / RFU CNN1 (11734310_a_at) / Fold change /veh CNN1 (11734310_a_at) / RFU VPS37D (11726825_at) / Fold change /veh VPS37D (11726825_at) / RFU C10orf10 (11716522_x_at) / Fold change /veh C10orf10 (11716522_x_at) / RFU KIR2DL2 /// KIR2DL4 /// KIR2DL5A /// KIR2DL5B /// KIR2DS1 /// KIR2DS2 /// KIR2DS3 /// KIR2DS4 /// KIR3DL3 /// KIR3DL3 /// KIR3DS1 (11738374_at) / Fold change /veh KIR2DL2 /// KIR2DL4 /// KIR2DL5A /// KIR2DL5B /// KIR2DS1 /// KIR2DS2 /// KIR2DS3 /// KIR2DS4 /// KIR3DL3 /// KIR3DL3 /// KIR3DS1 (11738374_at) / RFU C1QL1 (11718748_at) / Fold change /veh C1QL1 (11718748_at) / RFU TMPRSS4 (11747572_a_at) / Fold change /veh TMPRSS4 (11747572_a_at) / RFU HAMP (11756126_x_at) / Fold change /veh HAMP (11756126_x_at) / RFU RNFT2 (11725882_a_at) / Fold change /veh RNFT2 (11725882_a_at) / RFU NR4A2 (11747474_a_at) / Fold change /veh NR4A2 (11747474_a_at) / RFU ABCC12 (11746883_a_at) / Fold change /veh ABCC12 (11746883_a_at) / RFU TMEM136 (11760407_x_at) / Fold change /veh TMEM136 (11760407_x_at) / RFU CLDN22 /// WWC2 (11732394_at) / Fold change /veh CLDN22 /// WWC2 (11732394_at) / RFU HLA-DPB1 (11760878_x_at) / Fold change /veh HLA-DPB1 (11760878_x_at) / RFU SPINT1 (11716480_a_at) / Fold change /veh SPINT1 (11716480_a_at) / RFU GAP43 (11754022_s_at) / Fold change /veh GAP43 (11754022_s_at) / RFU A4GNT (11735810_at) / Fold change /veh A4GNT (11735810_at) / RFU PRB3 (11715151_x_at) / Fold change /veh PRB3 (11715151_x_at) / RFU TUBB4B (11761932_at) / Fold change /veh TUBB4B (11761932_at) / RFU CAPN14 (11732068_a_at) / Fold change /veh CAPN14 (11732068_a_at) / RFU TMCC2 (11721928_a_at) / Fold change /veh TMCC2 (11721928_a_at) / RFU IRGQ (11745062_a_at) / Fold change /veh IRGQ (11745062_a_at) / RFU FAM174B (11720279_a_at) / Fold change /veh FAM174B (11720279_a_at) / RFU TMPRSS4 (11748680_a_at) / Fold change /veh TMPRSS4 (11748680_a_at) / RFU FAM212B (11763350_a_at) / Fold change /veh FAM212B (11763350_a_at) / RFU PLEKHG5 (11743358_a_at) / Fold change /veh PLEKHG5 (11743358_a_at) / RFU ZSCAN30 (11745921_a_at) / Fold change /veh ZSCAN30 (11745921_a_at) / RFU CMKLR1 (11741424_a_at) / Fold change /veh CMKLR1 (11741424_a_at) / RFU LOC101060620 /// MAPK8IP1 (11723275_at) / Fold change /veh LOC101060620 /// MAPK8IP1 (11723275_at) / RFU SPTSSB (11747773_x_at) / Fold change /veh SPTSSB (11747773_x_at) / RFU PRSS12 (11739890_at) / Fold change /veh PRSS12 (11739890_at) / RFU BIN1 (11741810_x_at) / Fold change /veh BIN1 (11741810_x_at) / RFU WNT11 (11732464_a_at) / Fold change /veh WNT11 (11732464_a_at) / RFU C10orf10 (11716521_a_at) / Fold change /veh C10orf10 (11716521_a_at) / RFU C5orf56 (11738089_at) / Fold change /veh C5orf56 (11738089_at) / RFU CYB561 (11721691_x_at) / Fold change /veh CYB561 (11721691_x_at) / RFU ANKRD19P (11752326_a_at) / Fold change /veh ANKRD19P (11752326_a_at) / RFU OR2T12 /// OR2T33 /// OR2T8 (11738714_s_at) / Fold change /veh OR2T12 /// OR2T33 /// OR2T8 (11738714_s_at) / RFU VCAN (11748164_a_at) / Fold change /veh VCAN (11748164_a_at) / RFU JSRP1 (11732532_at) / Fold change /veh JSRP1 (11732532_at) / RFU KRTAP10-11 (11738290_x_at) / Fold change /veh KRTAP10-11 (11738290_x_at) / RFU MYO3A (11730013_a_at) / Fold change /veh MYO3A (11730013_a_at) / RFU EBF3 (11725865_a_at) / Fold change /veh EBF3 (11725865_a_at) / RFU CAMK2N1 (11719241_x_at) / Fold change /veh CAMK2N1 (11719241_x_at) / RFU C5orf56 (11738088_a_at) / Fold change /veh C5orf56 (11738088_a_at) / RFU OLFML3 (11715873_a_at) / Fold change /veh OLFML3 (11715873_a_at) / RFU LOC100653217 /// NTM (11731650_a_at) / Fold change /veh LOC100653217 /// NTM (11731650_a_at) / RFU MAPK11 (11762145_a_at) / Fold change /veh MAPK11 (11762145_a_at) / RFU FIZ1 (11724087_x_at) / Fold change /veh FIZ1 (11724087_x_at) / RFU OASL (11726364_x_at) / Fold change /veh OASL (11726364_x_at) / RFU SOX15 (11748057_x_at) / Fold change /veh SOX15 (11748057_x_at) / RFU CD79A (11719716_a_at) / Fold change /veh CD79A (11719716_a_at) / RFU HIST1H1D (11736915_at) / Fold change /veh HIST1H1D (11736915_at) / RFU CASKIN2 (11723855_a_at) / Fold change /veh CASKIN2 (11723855_a_at) / RFU LOC730098 (11760151_x_at) / Fold change /veh LOC730098 (11760151_x_at) / RFU OR4N2 (11742367_at) / Fold change /veh OR4N2 (11742367_at) / RFU PRRT2 (11749266_a_at) / Fold change /veh PRRT2 (11749266_a_at) / RFU SNX32 (11753110_a_at) / Fold change /veh SNX32 (11753110_a_at) / RFU CDHR5 (11726645_a_at) / Fold change /veh CDHR5 (11726645_a_at) / RFU RCAN1 (11760418_a_at) / Fold change /veh RCAN1 (11760418_a_at) / RFU FAM167A (11723789_a_at) / Fold change /veh FAM167A (11723789_a_at) / RFU FAM26E (11764081_at) / Fold change /veh FAM26E (11764081_at) / RFU ISYNA1 (11749810_s_at) / Fold change /veh ISYNA1 (11749810_s_at) / RFU ACY1 (11761880_at) / Fold change /veh ACY1 (11761880_at) / RFU 11764098_at / Fold change /veh 11764098_at / RFU SAMD14 (11745864_x_at) / Fold change /veh SAMD14 (11745864_x_at) / RFU NPB (11741838_a_at) / Fold change /veh NPB (11741838_a_at) / RFU TMPRSS6 (11731388_a_at) / Fold change /veh TMPRSS6 (11731388_a_at) / RFU KRTAP10-2 (11738614_at) / Fold change /veh KRTAP10-2 (11738614_at) / RFU ARHGAP8 /// PRR5-ARHGAP8 (11727945_x_at) / Fold change /veh ARHGAP8 /// PRR5-ARHGAP8 (11727945_x_at) / RFU KRTAP5-7 /// NADSYN1 (11734609_at) / Fold change /veh KRTAP5-7 /// NADSYN1 (11734609_at) / RFU RASL12 (11751679_a_at) / Fold change /veh RASL12 (11751679_a_at) / RFU CDKN2B (11736163_a_at) / Fold change /veh CDKN2B (11736163_a_at) / RFU PRF1 (11729649_at) / Fold change /veh PRF1 (11729649_at) / RFU, ZNF638 /// ZNF638-IT1 / Fold change vs veh, ZNF638 /// ZNF638-IT1 / RFU, PANK3 / Fold change vs veh, PANK3 / RFU, SH3YL1 / Fold change vs veh, SH3YL1 / RFU, ZEB2 / Fold change vs veh, ZEB2 / RFU, NRIP1 / Fold change vs veh, NRIP1 / RFU, PTTG1IP / Fold change vs veh, PTTG1IP / RFU, CAPN2 / Fold change vs veh, CAPN2 / RFU, MED14 / Fold change vs veh, MED14 / RFU, SNORA58 / Fold change vs veh, SNORA58 / RFU, C1orf63 / Fold change vs veh, C1orf63 / RFU, LRRFIP1 / Fold change vs veh, LRRFIP1 / RFU, NDUFAF7 / Fold change vs veh, NDUFAF7 / RFU, SLC12A2 / Fold change vs veh, SLC12A2 / RFU, IBTK / Fold change vs veh, IBTK / RFU, ESF1 / Fold change vs veh, ESF1 / Fold change vs veh, TMEM50B / RFU, TAOK1 / Fold change vs veh, TAOK1 / RFU, ACBD3 / Fold change vs veh, ACBD3 / RFU, TMA16 / Fold change vs veh, TMA16 / RFU, RWDD3 / Fold change vs veh, RWDD3 / RFU, BCAT1 / Fold change vs veh, BCAT1 / RFU, EDEM3 / Fold change vs veh, EDEM3 / RFU, TMEM33 / Fold change vs veh, TMEM33 / RFU, WDR75 / Fold change vs veh, WDR75 / RFU, AHCTF1 / Fold change vs veh, AHCTF1 / RFU, TFRC / Fold change vs veh, TFRC / RFU, ZDHHC17 / Fold change vs veh, ZDHHC17 / RFU, NOM1 / Fold change vs veh, NOM1 / RFU, ARL8B / Fold change vs veh, ARL8B / RFU, ZBTB11 / Fold change vs veh, ZBTB11 / RFU, TAMM41 / Fold change vs veh, TAMM41 / RFU, KIAA1704 /// LOC100996395 / Fold change vs veh, KIAA1704 /// LOC100996395 / RFU, ING1 / Fold change vs veh, ING1 / RFU, TRMT61B / Fold change vs veh, TRMT61B / RFU, FUBP3 / Fold change vs veh, FUBP3 / RFU, TP53 / Fold change vs veh, TP53 / RFU, TNKS2 / Fold change vs veh, TNKS2 / RFU, ZFP14 / Fold change vs veh, ZFP14 / RFU, ACTR2 / Fold change vs veh, ACTR2 / RFU, PPP3R1 / Fold change vs veh, PPP3R1 / RFU, PIK3R1 / Fold change vs veh, PIK3R1 / RFU, HNRNPA1 / Fold change vs veh, HNRNPA1 / RFU, RNF170 / Fold change vs veh, RNF170 / RFU, ZNF28 / Fold change vs veh, ZNF28 / RFU, RNGTT / Fold change vs veh, RNGTT / RFU, OGT / Fold change vs veh, OGT / RFU, BRD1 / Fold change vs veh, BRD1 / RFU, MARS / Fold change vs veh, MARS / RFU, ZNF655 / Fold change vs veh, ZNF655 / RFU, FAHD1 / Fold change vs veh, FAHD1 / RFU, BDP1 / Fold change vs veh, BDP1 / RFU, LRRCC1 / Fold change vs veh, LRRCC1 / RFU, ARID1A / Fold change vs veh, ARID1A / RFU, ZNF146 / Fold change vs veh, ZNF146 / RFU, ZNF330 / Fold change vs veh, ZNF330 / RFU, GPN3 / Fold change vs veh, GPN3 / RFU, C9orf123 / Fold change vs veh, C9orf123 / RFU, N4BP2L2 / Fold change vs veh, N4BP2L2 / RFU, ARFIP1 / Fold change vs veh, ARFIP1 / RFU, FAM179B / Fold change vs veh, FAM179B / RFU, BCL10 / Fold change vs veh, BCL10 / RFU, UHRF1BP1L / Fold change vs veh, UHRF1BP1L / RFU, BET1 / Fold change vs veh, BET1 / RFU, CNOT2 / Fold change vs veh, CNOT2 / RFU, ZNF268 / Fold change vs veh, ZNF268 / Fold change vs veh, ZNF507 / RFU, DGCR2 / Fold change vs veh, DGCR2 / RFU, WDSUB1 / Fold change vs veh, WDSUB1 / Fold change vs veh, HSP90B1 /// MIR3652 / RFU, ADSS / Fold change vs veh, ADSS / RFU, GK / Fold change vs veh, GK / RFU, ZNF148 / Fold change vs veh, ZNF148 / RFU, TAF9 / Fold change vs veh, TAF9 / RFU, SLC1A5 / Fold change vs veh, SLC1A5 / RFU, SLMO2 / Fold change vs veh, SLMO2 / RFU, ABCC4 / Fold change vs veh, ABCC4 / RFU, LOC101060439 /// RAP1B / Fold change vs veh, LOC101060439 /// RAP1B / RFU, RFX7 / Fold change vs veh, RFX7 / RFU, GTPBP10 / Fold change vs veh, GTPBP10 / RFU, CNEP1R1 / Fold change vs veh, CNEP1R1 / RFU, BIVM-ERCC5 /// ERCC5 / Fold change vs veh, BIVM-ERCC5 /// ERCC5 / RFU, ILF3 / Fold change vs veh, ILF3 / RFU 11762660_at / Fold change /veh 11762660_at / RFU VCAN (11757783_s_at) / Fold change /veh VCAN (11757783_s_at) / RFU DDX43 (11728927_at) / Fold change /veh DDX43 (11728927_at) / RFU KRT8 (11758188_x_at) / Fold change /veh KRT8 (11758188_x_at) / RFU NKD1 (11759106_at) / Fold change /veh NKD1 (11759106_at) / RFU SRD5A1 (11742802_a_at) / Fold change /veh SRD5A1 (11742802_a_at) / RFU TPSAB1 /// TPSB2 (11721975_s_at) / Fold change /veh TPSAB1 /// TPSB2 (11721975_s_at) / RFU GSTM3 (11746129_a_at) / Fold change /veh GSTM3 (11746129_a_at) / RFU IL23R (11737362_x_at) / Fold change /veh IL23R (11737362_x_at) / RFU TMEM51 (11727254_a_at) / Fold change /veh TMEM51 (11727254_a_at) / RFU PIWIL2 (11732686_x_at) / Fold change /veh PIWIL2 (11732686_x_at) / RFU ORM1 (11744905_x_at) / Fold change /veh ORM1 (11744905_x_at) / RFU CCDC152 (11743942_at) / Fold change /veh CCDC152 (11743942_at) / RFU ECM1 (11717891_a_at) / Fold change /veh ECM1 (11717891_a_at) / RFU IL23R (11748794_a_at) / Fold change /veh IL23R (11748794_a_at) / RFU TNFAIP8L3 (11732012_x_at) / Fold change /veh TNFAIP8L3 (11732012_x_at) / RFU MBOAT4 (11741988_at) / Fold change /veh MBOAT4 (11741988_at) / RFU 11764193_at / Fold change /veh 11764193_at / RFU TMEM53 (11763286_at) / Fold change /veh TMEM53 (11763286_at) / RFU MAGEB2 (11727129_at) / Fold change /veh MAGEB2 (11727129_at) / RFU TMEM200A (11744735_a_at) / Fold change /veh TMEM200A (11744735_a_at) / RFU CCDC152 (11751479_a_at) / Fold change /veh CCDC152 (11751479_a_at) / RFU FAM211A (11726209_a_at) / Fold change /veh FAM211A (11726209_a_at) / RFU RGS16 (11746705_a_at) / Fold change /veh RGS16 (11746705_a_at) / RFU VCAN (11755009_s_at) / Fold change /veh VCAN (11755009_s_at) / RFU RHOB (11743442_s_at) / Fold change /veh RHOB (11743442_s_at) / RFU RGS16 (11720943_a_at) / Fold change /veh RGS16 (11720943_a_at) / RFU RGS16 (11720944_at) / Fold change /veh RGS16 (11720944_at) / RFU, VPS4B / Fold change vs veh, VPS4B / RFU, CREB1 / Fold change vs veh, CREB1 / RFU, DNAJC13 / Fold change vs veh, DNAJC13 / RFU, GNAQ / Fold change vs veh, GNAQ / RFU, CDK5R1 / Fold change vs veh, CDK5R1 / RFU, ZRANB3 / Fold change vs veh, ZRANB3 / RFU, CUL4A / Fold change vs veh, CUL4A / RFU, CCNY / Fold change vs veh, CCNY / RFU, UFL1 / Fold change vs veh, UFL1 / RFU, COG3 / Fold change vs veh, COG3 / RFU, DIAPH2 / Fold change vs veh, DIAPH2 / RFU, SKA2 / Fold change vs veh, SKA2 / RFU, AFF3 / Fold change vs veh, AFF3 / RFU, LMF1 / Fold change vs veh, LMF1 / RFU, IPO11 / Fold change vs veh, IPO11 / RFU, DFFB / Fold change vs veh, DFFB / RFU, FOXP1 / Fold change vs veh, FOXP1 / RFU, CARD8 / Fold change vs veh, CARD8 / RFU, STRN3 / Fold change vs veh, STRN3 / RFU, ADK / Fold change vs veh, ADK / RFU, RASSF2 / Fold change vs veh, RASSF2 / RFU, WIPF1 / Fold change vs veh, WIPF1 / RFU, LARP1B / Fold change vs veh, LARP1B / RFU, RASA1 / Fold change vs veh, RASA1 / RFU, RB1 / Fold change vs veh, RB1 / RFU, PPFIA1 / Fold change vs veh, PPFIA1 / RFU, MAT2A / Fold change vs veh, MAT2A / RFU, CCT5 / Fold change vs veh, CCT5 / RFU, WDR92 / Fold change vs veh, WDR92 / RFU, CUX1 / Fold change vs veh, CUX1 / RFU, TTC7A / Fold change vs veh, TTC7A / RFU, TMEM135 / Fold change vs veh, TMEM135 / RFU, DEPTOR / Fold change vs veh, DEPTOR / RFU, CPM / Fold change vs veh, CPM / RFU, DNAJB6 / Fold change vs veh, DNAJB6 / RFU, CACNA2D3 / Fold change vs veh, CACNA2D3 / RFU, DTX4 / Fold change vs veh, DTX4 / RFU, TFCP2 / Fold change vs veh, TFCP2 / RFU, GMCL1 /// GMCL1P1 / Fold change vs veh, GMCL1 /// GMCL1P1 / RFU, AEBP2 / Fold change vs veh, AEBP2 / RFU, SNHG1 /// SNORD22 /// SNORD25 /// SNORD26 /// SNORD27 /// SNORD28 /// SNORD29 /// SNORD31 / Fold change vs veh, SNHG1 /// SNORD22 /// SNORD25 /// SNORD26 /// SNORD27 /// SNORD28 /// SNORD29 /// SNORD31 / Fold change (Aza/veh), C12orf56 (ProbeSet 11735607_a_at) / Fold change (ACY-1035/veh), C12orf56 (ProbeSet 11735607_a_at) / Fold change (Aza/veh), FGFR1OP (ProbeSet 11751329_s_at) / Fold change (ACY-1035/veh), FGFR1OP (ProbeSet 11751329_s_at) / Fold change (Aza/veh), VPS36 (ProbeSet 11739960_a_at) / Fold change (ACY-1035/veh), VPS36 (ProbeSet 11739960_a_at) / RFU SYPL1 (11715823_x_at) / Fold change /veh SYPL1 (11715823_x_at) / RFU IGFBP7 (11715501_s_at) / Fold change /veh IGFBP7 (11715501_s_at) / RFU REEP3 (11722064_at) / Fold change /veh REEP3 (11722064_at) / RFU IGLL1 (11728026_x_at) / Fold change /veh IGLL1 (11728026_x_at): dose or concentration left out as unconfirmed. The following applies: MV-4-11 cells, 48 hours.

Consider `Nc1ncn([C@@H]2O[C@H](CO)[C@@H](O)[C@H]2O)c(=O)n1` [azacitidine], for which the “RFU GIMAP4 (11747438_a_at)” value worked out at 6.50 RFU.
